Measurements from article PMC7412250, “Novel Chrysin-De-Allyl PAC-1 Hybrid Analogues as Anticancer Compounds: Design, Synthesis, and Biological Evaluation” (Molecules, 2020).

Legend:
[1] = test system: BT-20; experiment: MTT cytotoxicity assay, BT-20; assay type: cell-based; settings: Homo sapiens, mean ± SEM of three independent experiments in triplicate, read-out: IC50 Breast Cancer BT-20
Description: A panel of cancer cell lines, including breast (MDA-MB-231, BT20), brain (U251), and colon (HCT116), as well as a normal cell line (human mammary epithelial cells: HMECs), were grown as adherent monolayers in flasks with Dulbecco’s Modified Eagle Medium (DMEM), supplemented with 10% fetal bovine serum (FBS) and 1% penicillin and streptomycin in a humidified incubator with 5% CO2 at 37 °C.
The (3-(4,5-dimethylthiazol-2-yl)-2,5-diphenyltetrazolium bromide) (MTT) assay was used to determine the cytotoxicity of the 15 chrysin derivatives in the above-mentioned cell lines. Briefly, cells were harvested with 0.05% trypsin, 2.21 mM ethylenediaminetetraacetic acid (EDTA), 1× from Corning (Corning, NY, USA), and suspended at a final density of 5 × 10^3 cells/well. Cells were seeded (180 μL/well) into 96-well plates. Initially, four different concentrations of each compound were added to find the compounds with the greatest antiproliferative efficacy in the MDA-MB-231 cell line (0, 1, 10, and 100 μM). Subsequently, […] different concentrations […] of each compound were added to the remaining cell lines mentioned above. After 68 h of incubation, 20 μL of the MTT solution (4 mg/mL) were added to each well, and the plates were incubated for 4 h. This allowed viable cells to biotransform the yellow-colored MTT into dark-blue formazan crystals. Subsequently, the medium was discarded, and 150 μL of DMSO were added to each well to dissolve the formazan crystals. The absorbance was determined at 590 nm using a DTX 880 multimode detector (Beckman Coulter life sciences, IN, USA). The IC50 ± SD concentrations were calculated from three experiments performed in triplicate/duplicate. The IC50 values were calculated from the cell survival percentages obtained for each compound tested at different concentrations. Similarly, the cytotoxicity of the test compounds was compared to the normal cell line (HMEC).

[2] = test system: MDA-MB-231 cells; experiment: Morphological observation of cells; assay type: cell-based, human; settings: 20 µM
Description: Figure 3 Effects of 4g and 4i on cellular morphology, mitochondrial membrane potential, and cell cycle (A) Morphological observations of MDA-MB-231 cells incubated with 0, 5, and 20 µM concentrations of 4g and 4i at different time intervals of 0, 24, 48, and 72 h, respectively; (B) The MDA-MB-231 cells in complete medium were incubated with 4g and 4i at 0, 5, or 10 µM for 24 h. Cells were then incubated with the reagents of the MitoTracker Red and Alexa Fluor 488 annexin V kits for flow cytometry. Representative results of MDA-MB-231 cells from two independent experiments, each performed in triplicate, are shown; (C) Histograms quantitatively summarize the results following incubation with 4g and 4i, respectively; (D) The induction of cell cycle arrest in MDA-MB-231 cells by 4g and 4i is shown. The MDA-MB-231 cells were incubated with different concentrations (0, 5, and 10 µM) of 4g and 4i for 24 h and were subjected to cell cycle analysis by flow cytometry of PI (X axis)/cell counts (Y axis); (E) A histogram quantitatively summarizing the change in % of cells in each phase of the cell cycle due to incubation with 4g and 4i. The data represents means ± SEM of three independent experiments performed in triplicate with **** p < 0.0001 vs. control group. […]

SMILES | IC50 [1] [µM] | cellular morphology [2]
O=C(COc1cc(O)c2c(=O)cc(-c3ccccc3)oc2c1)N/N=C/c1ccc(O)cc1O [Compound 4g, (E,Z)-N’-(2,4-Dihydroxybenzylidene)-2-((5-hydroxy-4-oxo-2-phenyl-4H-chromen-7-yl)oxy)acetohydrazide] | 5.32 ± 0.72 | decreased the number of adherent MDA-MB-231 cells and induced cellular shrinkage
O=C(COc1cc(O)c2c(=O)cc(-c3ccccc3)oc2c1)N/N=C/c1ccc(O)c(O)c1O [Compound 4i, (E,Z)-2-((5-Hydroxy-4-oxo-2-phenyl-4H-chromen-7-yl)oxy)-N’-(2,3,4-trihydroxybenzylidene)acetohydrazide] | 10.4 ± 0.2 | decreased the number of adherent MDA-MB-231 cells and induced cellular shrinkage
